Assay results from US9637490B2, “Antifungal 5,6-dihydro-4-[(difluoroethyl)phenyl]-4H-pyrrolo[1,2-α][1,4]benzodiazepine and 4-(difluoroethyl)phenyl-6H-pyrrolo[1,2-α][1,4]benzodiazepine derivatives” (Janssen Pharmaceutica NV, priority 2010, dated 2017).

Legend:
[1] = test system: Aspergillus fumigatus B42928; experiment: Antifungal activity in vitro (resazurin susceptibility screen), Inf. E; type: cell-based; conditions: Aspergillus fumigatus, B42928, Aspergillus fumigatus B42928; 27 °C, 48 hours, resa time 17 hours
Procedure, shortened: (§1)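 Compounds were tested in 2- or 4-fold serial dilution up to 64 μM against cryopreserved isolates (10^3 cfu/well) in RPMI-1640 with L-glutamine, 2% glucose and MOPS pH 7.0. Incubation ran 24 h at 37° C for yeasts to a week or more at 27° C for dermatophytes; growth was read by resazurin fluorescence (ex 550/em 590 nm).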

[2] = test system: Trichophyton rubrum B68183; experiment: Antifungal activity in vitro (resazurin susceptibility screen), Inf. C; type: cell-based; conditions: Trichophyton rubrum, B68183, Trichophyton rubrum B68183; 27 °C, 7 days, resa time 24 hours
Procedure, shortened: as §1

[3] = test system: Trichophyton mentagrophytes B70554; experiment: Antifungal activity in vitro (resazurin susceptibility screen), Inf. G; type: cell-based; conditions: Trichophyton mentagrophytes, B70554, Trichophyton mentagrophytes B70554; 27 °C, 7 days, resa time 24 hours
Procedure, shortened: as §1

Microsporum canis B68128 = experiment: Antifungal activity in vitro (resazurin susceptibility screen), Inf. B; type: cell-based; conditions: Microsporum canis, B68128, Microsporum canis B68128; 27 °C, 9 days, resa time 24 hours
Procedure, shortened: as §1

Rhizopus oryzae IHEM5223 = experiment: Antifungal activity in vitro (resazurin susceptibility screen), Inf. J; type: cell-based; conditions: Rhizopus arrhizus, 37 °C, 24 hours, resa time 6 hours
Procedure, shortened: as §1

[4] = test system: Cryptococcus neoformans B66663; experiment: Antifungal activity in vitro (resazurin susceptibility screen), Inf. F; type: cell-based; conditions: Cryptococcus neoformans, B66663, Cryptococcus neoformans B66663; 37 °C, 24 hours, resa time 4 hours
Procedure, shortened: as §1

in vivo = experiment: in vivo; set-up: species or system mice; conditions: mouse, po, 10 mg/kg
Experimental: Three animals (mean weight 20±7 g for mice and 275±20 for Guinea pigs) were used per dose route, time point and formulation.
For the oral (PO) solution formulation, compound was dissolved in a 20% hydroxypropyl-β-cyclodextrin (HP-β-CD) solution at a final concentration of 1 mg/ml. HCl was added to facilitate dissolution. After dissolution, the pH was brought up to 3.7 with NaOH. Mannitol was added to make the solution isotonic. For the PO suspension formulation, compound was suspended in 0.5% methocel at a final concentration of 1 mg/ml. The formulations were stored at room temperature, protected from light and analysed quantitatively with LC-MS/MS on the day of preparation. Stability of the formulations was checked on the day of dosing.
The animals were dosed orally by gastric intubation at 10 ml/kg to obtain a final dose 10 mg/kg. Three dosed animals were sacrificed for blood sampling at 15 and 30 min, 1, 2, 3, 4, 6, 8 and 24 h after PO dose administration as a solution and at 30 min, 1, 2, 4, 6, 8 and 24 h after PO dose administration as a suspension.
Blood was collected by multiple sampling from a tail vein into Multivette® 600 K3E tubes (Sarstedt). Samples were placed immediately at approximately 4° C. and plasma was obtained following centrifugation at 4° C. for 10 minutes at approximately 1900×g. All samples were shielded from daylight and stored at ≦−18° C. prior to analysis.
Plasma samples were analysed for dosed compound using a qualified research LC-MS/MS method. The key analytical performance (linearity, upper and lower limit of quantification, accuracy and precision) of the method was reported together with the plasma concentrations.
A limited pharmacokinetic analysis was performed using WinNonlin™ Professional (Version 5.2.1). A non-compartmental analysis using the lin/log trapezoidal rule with lin/log interpolation was used for all data.

[5] = test system: Candida parapsilosis B66126; experiment: Antifungal activity in vitro (resazurin susceptibility screen), Inf. D; type: cell-based; conditions: Lodderomyces parapsilosis, B66126, Candida parapsilosis B66126; 37 °C, 24 hours, resa time 4 hours
Procedure, shortened: as §1

[6] = test system: Sporothrix schenkii B62482; experiment: Antifungal activity in vitro (resazurin susceptibility screen), Inf. A; type: cell-based; conditions: Sporothrix, B62482, Sporothrix schenkii B62482; 27 °C, 4 days, resa time 24 hours
Procedure, shortened: as §1

[7] = test system: Mucor circinelloides IHEM21105; experiment: Antifungal activity in vitro (resazurin susceptibility screen), Inf. L; type: cell-based; conditions: 27 °C, 48 hours, resa time 17 hours
Procedure, shortened: as §1

CC(F)(F)c1ccc(C2=NCc3c(Cl)cccc3-n3cccc32)cc1 [Compound 4, 7-chloro-4-[4-(1,1-difluoroethyl)phenyl]-6H-pyrrolo[1,2-a][1,4]benzodiazepine]
IC50 [1]: 2240 nM | IC50 [2]: 234 nM | IC50 [3]: 891 nM | IC50 (Microsporum canis B68128): 479 nM | IC50 (Rhizopus oryzae IHEM5223): > 64600 nM | melting point: 215.2 to 217.6 °C | IC50 [4]: 21400 nM | bioavailability (in vivo): 20% | IC50 [5]: 3090 nM | IC50 [6]: 12000 nM | IC50 [7]: > 64600 nM
